Patent publication US20230143612A1 (Arbutus Biopharma Corporation, priority 2020, published 2023)

What follows are molecules tested against PD-L1 His protein / PD-1 Fc protein (Homo sapiens, UniProt Q9NZQ7) (assay: HTRF Assay (PD-1/PD-L1 interaction)). Conditions: PD-L1 His 6 nM, PD-1 Fc 6 nM.
Assay type: binding
In short: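 HTRF: PD-L1 His (6 nM final), compound (3-fold dilutions, 20 μM to 0.001 μM final) and PD-1 Fc (6 nM final) preincubated 15 min at room temperature. Anti-human IgG-XL665 and anti-6HIS Tb cryptate (mixed at 6.7 nM and 0.35 nM) then added for 1 h at room temperature before reading.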

Sequence of PD-L1 His protein / PD-1 Fc protein (Q9NZQ7 19-238 limits assumed): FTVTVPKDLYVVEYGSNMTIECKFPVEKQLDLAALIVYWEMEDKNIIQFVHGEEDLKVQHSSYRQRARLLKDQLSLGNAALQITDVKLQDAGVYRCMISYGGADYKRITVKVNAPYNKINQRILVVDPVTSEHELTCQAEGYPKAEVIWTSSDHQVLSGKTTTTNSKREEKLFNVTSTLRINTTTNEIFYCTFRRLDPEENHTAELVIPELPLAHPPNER

Compound	IC50 [nM]
COc1nc(-c2cccc(-c3cccc(-c4ccn5c(=O)c(CN6CCC[C@H]6C(=O)O)cnc5c4)c3Cl)c2Cl)ccc1CNC[C@@H]1CCC(=O)N1 [Example 128, ((8-(2,2′-Dichloro-3′-(6-methoxy-5-(((((S)-5-oxopyrrolidin-2-yl)methyl)amino)methyl)pyridin-2-yl)-[1,1′-biphenyl]-3-yl)-4-oxo-4H-pyrido[1,2-a]pyrimidin-3-yl)methyl)-L-proline]	0.2
COc1nc(-c2cccc(-c3cccc(-c4ccc5c(n4)nc(CN[C@H]4C[C@H](O)C4)n5C)c3Cl)c2Cl)ccc1CN[C@H]1C[C@H](O)C1 [Example 313, (1r,3r)-3-(((6-(2,2′-Dichloro-3′-(2-((((1r,3r)-3-hydroxycyclobutyl)amino)methyl)-1-methyl-1H-imidazo[4,5-b]pyridin-5-yl)-[1,1′-biphenyl]-3-yl)-2-methoxypyridin-3-yl)methyl)amino)cyclobutan-1-ol]	1.9
CNC(=O)[C@H](C)N(C)Cc1cnc2cc(-c3cccc(-c4cccc(-c5ccc(CNC[C@@H]6CCC(=O)N6)c(OC)n5)c4Cl)c3Cl)ccn2c1=O [Example 263, (S)-2-(((8-(2,2′-dichloro-3′-(6-methoxy-5-(((((S)-5-oxopyrrolidin-2-yl)methyl)amino)methyl)pyridin-2-yl)-[1,1′-biphenyl]-3-yl)-4-oxo-4H-pyrido[1,2-a]pyrimidin-3-yl)methyl)(methyl)amino)-N-methylpropanamide]	0.6
COc1nc(-c2cccc(-c3cccc(-c4ccn5c(=O)c(CN6CC7(C6)CN(C(C)=O)C7)cnc5c4)c3Cl)c2Cl)ccc1CNC[C@@H]1CCC(=O)N1 [Example 329, (S)-3-((6-Acetyl-2,6-diazaspiro[3.3]heptan-2-yl)methyl)-8-(2,2′-dichloro-3′-(6-methoxy-5-((((5-oxopyrrolidin-2-yl)methyl)amino)methyl)pyridin-2-yl)-[1,1′-biphenyl]-3-yl)-4H-pyrido[1,2-a]pyrimidin-4-one]	0.1
COc1nc(-c2cccc(-c3cccc(-c4cc5c(=O)n(C)c(CN6CC7(CC(O)C7)C6)nn5c4)c3Cl)c2Cl)ccc1CNC[C@@H]1CCC(=O)N1 [Example 468, 6-[2-Chloro-3-[2-chloro-3-[6-methoxy-5-[[[(2S)-5-oxopyrrolidin-2-yl]methylamino]methyl]-2-pyridyl]phenyl]phenyl]-2-[(6-hydroxy-2-azaspiro[3.3]heptan-2-yl)methyl]-3-methyl-pyrrolo[2,1-f][1,2,4]triazin-4-one]	7
COc1nc(-c2cccc(-c3cccc(-c4ccc5nc(CNCCO)cn5n4)c3Cl)c2Cl)ccc1CNC[C@@H]1CCC(=O)N1 [Example 352, (5S)-5-[[[6-[2-Chloro-3-[2-chloro-3-[2-[(2-hydroxyethylamino)methyl]imidazo[1,2-b]pyridazin-6-yl]phenyl]phenyl]-2-methoxy-3-pyridyl]methylamino]methyl]pyrrolidin-2-one]	0.5
COc1nc(-c2cccc(-c3cccc(-c4cnc5oc(CNC[C@@H]6CCC(=O)N6)cc5c4)c3Cl)c2Cl)ccc1CNC[C@@H]1CCC(=O)N1 [Example 459, (S)-5-((((6-(2,2′-Dichloro-3′-(2-(((((S)-5-oxopyrrolidin-2-yl)methyl)amino)methyl)furo[2,3-b]pyridin-5-yl)-[1,1′-biphenyl]-3-yl)-2-methoxypyridin-3-yl)methyl)amino)methyl)pyrrolidin-2-one]	200
COc1nc(-c2cccc(-c3cccc(-c4ccn5c(=O)c(CNC[C@@H]6CCC(=O)N6)cnc5c4)c3Cl)c2Cl)ccc1CN[C@@H](CO)C(=O)O [Example 114, ((6-(2,2′-Dichloro-3′-(4-oxo-3-(((((S)-5-oxopyrrolidin-2-yl)methyl)amino)methyl)-4H-pyrido[1,2-a]pyrimidin-8-yl)-[1,1′-biphenyl]-3-yl)-2-methoxypyridin-3-yl)methyl)-L-serine]	0.6
COc1c(CNC[C@@H]2CCC(=O)N2)ccc(-c2cccc(-c3cccc(-c4ccn5c(=O)c(CNC[C@@H]6CCC(=O)N6)cnc5c4)c3Cl)c2Cl)c1F [Example 105, 8-[2-Chloro-3-[2-chloro-3-[2-fluoro-3-methoxy-4-[[[(2S)-5-oxopyrrolidin-2-yl]methylamino]methyl]phenyl]phenyl]phenyl]-3-[[[(2S)-5-oxopyrrolidin-2-yl]methylamino]methyl]pyrido[1,2-a]pyrimidin-4-one]	5.9
COc1nc(CC2CCc3c(-c4cccc(-c5ccn6c(=O)c(CNC[C@@H]7CCC(=O)N7)cnc6c5)c4Cl)cccc32)c(Cl)cc1CNC[C@@H]1CCC(=O)N1 (mixture of isomers) [Example 213, 8-(2-chloro-3-(1-((3-chloro-6-methoxy-5-(((((S)-5-oxopyrrolidin-2-yl)methyl)amino)methyl)pyridin-2-yl)methyl)-2,3-dihydro-1H-inden-4-yl)phenyl)-3-(((((S)-5-oxopyrrolidin-2-yl)methyl)amino)methyl)-4H-pyrido[1,2-a]pyrimidin-4-one]	3700
Cn1cc(CNC[C@@H]2CCC(=O)N2)c2ccc(-c3cccc(-c4cccc(-c5ccc6c(CNC[C@@H]7CCC(=O)N7)cn(C)c6n5)c4Cl)c3Cl)nc21 [Example 417, (5S)-5-[[[6-[2-Chloro-3-[2-chloro-3-[1-methyl-3-[[[(2S)-5-oxopyrrolidin-2-yl]methylamino]methyl]pyrrolo[2,3-b]pyridin-6-yl]phenyl]phenyl]-1-methyl-pyrrolo[2,3-b]pyridin-3-yl]methylamino]methyl]pyrrolidin-2-one]	32
COc1nc(-c2cccc(-c3cccc(-c4ccn5c(=O)c(CN6CC[C@H](C(=O)O)C6)cnc5c4)c3Cl)c2Cl)ccc1CN1CC(CO)C1 [Example 83, (S)-1-((8-(2,2′-Dichloro-3′-(5-((3-(hydroxymethyl)azetidin-1-yl)methyl)-6-methoxypyridin-2-yl)-[1,1′-biphenyl]-3-yl)-4-oxo-4H-pyrido[1,2-a]pyrimidin-3-yl)methyl)pyrrolidine-3-carboxylic acid]	0.4
COc1nc(-c2cccc(-c3cccc(-c4ccn5c(=O)c(CNCC(F)(F)CO)cnc5c4)c3Cl)c2Cl)ccc1CNC[C@@H]1CCC(=O)N1 [Example 300, (S)-8-(2,2′-Dichloro-3′-(6-methoxy-5-((((5-oxopyrrolidin-2-yl)methyl)amino)methyl)pyridin-2-yl)-[1,1′-biphenyl]-3-yl)-3-(((2,2-difluoro-3-hydroxypropyl)amino)methyl)-4H-pyrido[1,2-a]pyrimidin-4-one]	130
COc1nc(-c2cccc(-c3cccc(-c4cc(F)c5c(c4)CCN(C[C@@H]4CCC(=O)N4)C5)c3Cl)c2Cl)ccc1CNC[C@@H]1CCC(=O)N1 [Example 425, (S)-5-((6-(2,2′-Dichloro-3′-(6-methoxy-5-(((((S)-5-oxopyrrolidin-2-yl)methyl)-amino)-methyl)-pyridin-2-yl)-[1,1′-biphenyl]-3-yl)-8-fluoro-3,4-dihydroisoquinolin-2(1H)-yl)methyl)pyrrolidin-2-one]	8.3
COc1nc(-c2cccc(-c3cccc(-c4ccn5c(=O)c(CNCCCC(=O)O)cnc5c4)c3Cl)c2Cl)ccc1CNC[C@@H]1CCC(=O)N1 [Example 160, (S)-4-(((8-(2,2′-Dichloro-3′-(6-methoxy-5-((((5-oxopyrrolidin-2-yl)methyl)amino)methyl)pyridin-2-yl)-[1,1′-biphenyl]-3-yl)-4-oxo-4H-pyrido[1,2-a]pyrimidin-3-yl)methyl)amino)butanoic acid]	0.7
Cc1c(-c2ccn3c(=O)c(CNC[C@@H]4CCC(=O)N4)cnc3c2)cccc1-c1cccc(-c2ccc(CNC[C@@H]3CCC(=O)N3)c(C(F)(F)F)n2)c1Cl [Example 78, 8-(2′-Chloro-2-methyl-3′-(5-(((((S)-5-oxopyrrolidin-2-yl)methyl)amino)methyl)-6-(trifluoromethyl)pyridin-2-yl)-[1,1′-biphenyl]-3-yl)-3-(((((S)-5-oxopyrrolidin-2-yl)methyl)amino)methyl)-4H-pyrido[1,2-a]pyrimidin-4-one]	16
COc1nc(-c2cccc(-c3cccc(-c4cc5c(=O)n(C)c(CNCC(=O)O)nn5c4)c3Cl)c2Cl)ccc1CNC[C@@H]1CCC(=O)N1 [Example 487, 2-[[6-[2-Chloro-3-[2-chloro-3-[6-methoxy-5-[[[(2S)-5-oxopyrrolidin-2-yl]methylamino]methyl]-2-pyridyl]phenyl]phenyl]-3-methyl-4-oxo-pyrrolo[2,1-f][1,2,4]triazin-2-yl]methylamino]acetic acid]	0.1
COc1nc(-c2cccc(-c3cccc(-c4ccn5c(=O)c(CNC6CNC(=O)C6)cnc5c4)c3Cl)c2Cl)ccc1CNC1CNC(=O)C1 (mixture of isomers) [Example 63, 8-(2,2′-Dichloro-3′-(6-methoxy-5-(((5-oxopyrrolidin-3-yl)amino)methyl)pyridin-2-yl)-[1,1′-biphenyl]-3-yl)-3-(((5-oxopyrrolidin-3-yl)amino)methyl)-4H-pyrido[1,2-a]pyrimidin-4-one]	1.5
COc1nc(-c2cccc(-c3cccc(-c4ccn5c(=O)c(CN(C)C[C@@H]6CCC(=O)N6)cnc5c4)c3C)c2Cl)ccc1CNC[C@@H]1CCC(=O)N1 [Example 54, 8-(2′-Chloro-3′-(6-methoxy-5-(((((S)-5-oxopyrrolidin-2-yl)methyl)amino)methyl)pyridin-2-yl)-2-methyl-[1,1′-biphenyl]-3-yl)-3-((methyl(((S)-5-oxopyrrolidin-2-yl)methyl)amino)methyl)-4H-pyrido[1,2-a]pyrimidin-4-one]	7
COC[C@@H](NCc1cnc2cc(-c3cccc(-c4cccc(-c5ccc(CNC[C@@H]6CCC(=O)N6)c(OC)n5)c4Cl)c3Cl)ccn2c1=O)C(=O)O [Example 150, N-((8-(2,2′-Dichloro-3′-(6-methoxy-5-(((((S)-5-oxopyrrolidin-2-yl)methyl)amino)methyl)-pyridin-2-yl)-[1,1′-biphenyl]-3-yl)-4-oxo-4H-pyrido[1,2-a]pyrimidin-3-yl)methyl)-O-methyl-D-serine]	0.3
